# Data reported in patent publication US20220273799A1, “DRUG DELIVERY COMPOSITION, METHOD FORMING THE SAME AND METHOD FOR TREATING INNER EAR DISORDERS” (National Taiwan University of Science and Technology, priority 2021, published 2022).
# Assay: DEX concentration in cochlear perilymph after intratympanic injection
# Assay type: in vivo, guinea pig
# Protocol: (1) Preparation of guinea pig models: The guinea pig model used in this example is the pigmented guinea pig model. The surgical anesthesia is given by intramuscular injection of ketamine HCl (40 mg per kg guinea pig body weight). The remaining injections are muscle relaxant Rompun® (Xylazine)(10 mg/kg guinea pig body weight), prophylactic antibiotic chloramphenicol sodium succinate (30 mg/kg guinea pig body weight), and local anesthetic Lidocaine HCl (1%, 0.5 mL).
# (2) Preparation for the Guinea pig surgery and the experiment: The surgery is carried out by intratympanic injection. The guinea pig is anesthetized and operated under a dissecting surgical microscope after confirmation. A 22G needle is used to puncture the eardrum, and 200 μL of the temperature-sensitive microbubbles drug (DEX) hydrogel of the present disclosure is applied into the middle ear cavity. The experiments are performed in the ultrasound microbubble treatment group (USM), round window soaking group (RWS), and the group treated with DEX only without MBs (DEX only without MBs). The groups are as follows: USM group is injected with the temperature-sensitive microbubbles drug hydrogel at 3W energy for 1 minute. […] The concentrations of DEX are measured in the cochlear perilymph of guinea pigs on day 1 and day 7 after injection.
structure (smiles),measurement,setting,value
"C[C@@H]1C[C@H]2[C@@H]3CCC4=CC(=O)C=C[C@]4(C)[C@@]3(F)[C@@H](O)C[C@]2(C)[C@@]1(O)C(=O)CO [DEX only without MBs, dexamethasone]",DEX concentration in cochlear perilymph,"day 1 after injection, DEX only without MBs group",about 17.38±2.51 μg/mL
same,DEX concentration in cochlear perilymph,"day 7 after injection, DEX only group",< 3 ng/mL
